Consider 4 compounds from patent US9284325B2, “Spectinamides as anti-tuberculosis agents” (UNIVERSITY OF TENNESSEE RESEARCH FOUNDATION, priority 2009, dated 2016).

One assay concerns E. coli K12. The experiment in a line: MIC determination by microbroth dilution. The assay is classed as cell-based, Escherichia coli. The conditions noted are these: Escherichia coli, K12. On the technique in general: In broth dilution the organism is exposed to a series of concentrations in liquid medium.
Assay [1] has as its system Acinetobacter baumannii ATCC 19606. The experiment in a line: MIC determination by microbroth dilution. The assay is classed as cell-based. Particulars: ATCC19606.
In assay [2] the test system is Klebsiella pneumoniae ATCC 33495. The experiment in a line: MIC determination by microbroth dilution. Format: cell-based. The conditions noted are these: ATCC33495.
In assay [3] the test system is Strep. pyogenes ATCC 700294. The assay can be described thus: MIC determination by microbroth dilution. The assay is classed as cell-based, Streptococcus pyogenes. The conditions noted are these: Streptococcus pyogenes, ATCC700294, read-out: MIC S. pyogenes.
In assay [4] the test system is Burkholderia cepacia ATCC 25416. The experiment in a line: MIC determination by microbroth dilution. Format: cell-based. Particulars: ATCC25416, read-out: MIC B. cepcia.
In another assay the test system is P. aeruginosa PAO1. The assay can be described thus: MIC determination by microbroth dilution. The conditions noted are these: Pseudomonas aeruginosa. The assay is classed as cell-based, Pseudomonas aeruginosa.
Assay [5] concerns Proteus vulgaris ATCC 33420. The experiment in a line: MIC determination by microbroth dilution. The conditions noted are these: ATCC33420. Format: cell-based.
A further assay deals with E. coli ribosomes. Format: biochemical. The conditions noted are these: for relative inhibitory activity on luciferase production: tested at 0.66 and 6.6 μM, FIG. 5.
For assay [6], the system named is Proteus mirabilis ATCC 25933. The experiment in a line: MIC determination by microbroth dilution. The assay is classed as cell-based. Particulars: ATCC25933.
Assay [7] has as its system Strenotrophomonas maltophilia ATCC 13637. The assay can be described thus: MIC determination by microbroth dilution. The assay is classed as cell-based.
In a further assay the test system is E. faecalis ATCC 33186. The assay can be described thus: MIC determination by microbroth dilution. Format: cell-based, Enterococcus faecalis. Particulars: Enterococcus faecalis, ATCC33186.
Another assay concerns E. coli K12 ΔtolC. The assay can be described thus: microbe, parasite or virus in culture. The assay is classed as cell-based. Particulars: Escherichia coli, read-out: MIC E. coli K12 ΔtolC.
For a further assay, the system named is B. anthracis Sterne 34F2. The experiment in a line: microbe, parasite or virus in culture. The conditions noted are these: Bacillus anthracis, STERNE34F2, read-out: MIC B. anthracis 34F2. The assay is classed as cell-based, Bacillus anthracis.
Assay [8] deals with Strep. pneumoniae DAW27 or strain R6. The assay can be described thus: MIC determination by microbroth dilution. The assay is classed as cell-based, Streptococcus pneumoniae. The conditions noted are these: Streptococcus pneumoniae; Strep. pneumoniae DAW27 or strain R6 (for 1443-1544); read-out: MIC S. pneumoniae.
The test system of assay [9] is S. aureus 8325 or strain ATCC 29213. The experiment in a line: MIC determination by microbroth dilution. Format: cell-based, Staphylococcus aureus. The conditions noted are these: Staphylococcus aureus, ATCC29213; S. aureus 8325 or strain ATCC 29213 (for 1471-1544).
For a further assay, the system named is M. tuberculosis H37Rv. The assay can be described thus: MIC determination by microbroth dilution, anti-tuberculosis activity. The conditions noted are these: Mycobacterium tuberculosis, H37RV, 168 h; read-out: MIC. Format: cell-based, Mycobacterium tuberculosis.

Molecules are shown by their SMILES. Counter-ions that a name gives are not always drawn. Some results are limits rather than exact numbers.

For the compound `CN[C@@H]1[C@H](O)[C@H](NC)C2O[C@]3(O)C(OC2[C@H]1O)O[C@H](C)C[C@H]3NCc1ccco1` (stereo partly drawn) [Compound 1422, 3′-Dihydro-3′-deoxy-4(R)-furan-2yl-methylamino spectinomycin Trihydrochloride], the MIC with E. coli K12 is 25 mg/L; in assay [1] it was more than 200 mg/L; in assay [2] it was more than 200 mg/L; in assay [3], 200 mg/L; in assay [4], more than 200 mg/L; in the assay on P. aeruginosa PAO1, 25 mg/L. Besides, the MIC is more than 200 mg/L in assay [5]; more than 200 mg/L in assay [6]; more than 200 mg/L in assay [7]; 12.5 mg/L against E. faecalis ATCC 33186; 12.5 mg/L in the assay on E. coli K12 ΔtolC; 12.5 mg/L in the assay with B. anthracis Sterne 34F2. The figures for the MIC (in [8]; in [9]; with M. tuberculosis H37Rv) were 50 mg/L, 25 mg/L and 200 mg/L, respectively. In addition, the “relative inhibitory activity on luciferase production” value (“relative inhibitory activity” below) in the assay on E. coli ribosomes is recorded as “inhibited well”.

Turning to `CN[C@@H]1[C@H](O)[C@H](NC)C2O[C@]3(O)C(OC2[C@H]1O)O[C@H](C)C[C@H]3NCc1cccc(OC)c1` (stereo partly drawn) [Compound 1423, 3′-Dihydro-3′-deoxy-4(R)-(3-methoxy)benzylamino spectinomycin Trihydrochloride], the MIC in the assay on E. coli K12 is 200 mg/L; in assay [1] it was more than 200 mg/L; in assay [2], more than 200 mg/L; in [3], 25 mg/L; in assay [4], more than 200 mg/L; in the assay with P. aeruginosa PAO1, more than 200 mg/L. Besides, the MIC is more than 200 mg/L in assay [5]; more than 200 mg/L in assay [6]; more than 200 mg/L in assay [7]; more than 200 mg/L against E. faecalis ATCC 33186; 100 mg/L in the assay with E. coli K12 ΔtolC; 200 mg/L with B. anthracis Sterne 34F2. For the same compound, the MIC (in assay [8]; in assay [9]; with M. tuberculosis H37Rv) was 200 mg/L throughout. The “relative inhibitory activity” value with E. coli ribosomes is “inhibited well”.

With `CN[C@@H]1[C@H](O)[C@H](NC)C2O[C@]3(O)C(OC2[C@H]1O)O[C@H](C)C[C@H]3NCc1ccc(F)cc1` (stereo partly drawn) [Compound 1424, 3′-Dihydro-3′-deoxy-4(R)-4-fluoro)benzylamino spectinomycin Trihydrochloride], the MIC in the assay on E. coli K12 is 200 mg/L; in [1], more than 200 mg/L; in assay [2], more than 200 mg/L; in assay [3], 50 mg/L; in [4] it was more than 200 mg/L; in the assay with P. aeruginosa PAO1 it was 200 mg/L. Further, the MIC in [5] was more than 200 mg/L; in [6], more than 200 mg/L; in [7], more than 200 mg/L; with E. faecalis ATCC 33186, 100 mg/L; in the assay on E. coli K12 ΔtolC, 50 mg/L; in the assay with B. anthracis Sterne 34F2, 100 mg/L. In addition, the MIC in assay [8] came to 25 mg/L; in [9] it was 50 mg/L; in the assay with M. tuberculosis H37Rv, 200 mg/L. For the same compound, the “IC50, 50% inhibition of luciferase biosynthesis in S30 assay” value with E. coli ribosomes (E. coli S30 transcription/translation assay) was determined as 0.80 mg/L. For the same compound, the “relative inhibitory activity” value with E. coli ribosomes is on record as “inhibited well”.

With `CN[C@@H]1[C@H](O)[C@H](NC)C2O[C@]3(O)C(OC2[C@H]1O)O[C@H](C)C[C@H]3NCc1ccc(C)cc1` (stereo partly drawn) [Compound 1425, 3′-Dihydro-3′-deoxy-4(R)-(4-methyl)benzylamino spectinomycin Trihydrochloride], the MIC was 200 mg/L with E. coli K12; more than 200 mg/L in assay [1]; more than 200 mg/L in assay [2]; 12.5 mg/L in assay [3]; more than 200 mg/L in assay [4]; 200 mg/L in the assay with P. aeruginosa PAO1. The MIC was more than 200 mg/L in assay [5]; more than 200 mg/L in [6]; more than 200 mg/L in assay [7]; 100 mg/L in the assay on E. faecalis ATCC 33186; 100 mg/L in the assay on E. coli K12 ΔtolC; 100 mg/L in the assay on B. anthracis Sterne 34F2. The MIC in assay [8] came out at 100 mg/L; in assay [9], 50 mg/L; with M. tuberculosis H37Rv it was 1000 mg/L. In addition, in the assay with E. coli ribosomes, the “relative inhibitory activity” value is reported as “inhibited well”.
